Assay: Inhibitory concentration against Escherichia coli heat-labile enterotoxin (LT) binding to ganglioside GD1b was determined by ELISA assay

**Q.** With `O=[N+]([O-])c1cccc(O[C@@H]2O[C@H](CO)[C@H](O)[C@H](O)[C@H]2O)c1` as the compound, how does the IC50 read?
**A.** The IC50 was 0.6 µM.

**Q.** With `O=C(O)[C@H](O)[C@@H](O)[C@H](O)[C@H](O)CO[C@@H]1O[C@H](CO)[C@H](O)[C@H](O)[C@H]1O` as the compound, how does the IC50 read?
**A.** The IC50 was 7 µM.

**Q.** For `O=C[C@H](O)[C@@H](O)[C@@H](O)[C@H](O)CO` [GALACTOSE], which IC50 is on record?
**A.** Its IC50 is 57 µM.

**Q.** With `OC[C@H]1O[C@@H](O[C@@H]2[C@@H](CO)O[C@](O)(CO)[C@H]2O)[C@H](O)[C@@H](O)[C@H]1O` [LACTULOSE] as the compound, how does the IC50 read?
**A.** The IC50 was 15 µM.

**Q.** Which IC50 does the source give for `OC[C@H]1O[C@@H](S[C@@H]2O[C@H](CO)[C@H](O)[C@H](O)[C@H]2O)[C@H](O)[C@@H](O)[C@H]1O` [THIODIGALACTOSIDE] here?
**A.** The IC50 was 4 µM.

**Q.** For LACTOSE, ANHYDROUS, which IC50 is on record?
**A.** The IC50 was 45 µM.
